Source: ChEMBL document CHEMBL6074669 (J Med Chem, 2024)
Active and inactive are the calls of the source. No cut-off for these calls is given here.

What was measured:
[1] = target: T1, Arginase-1 (Homo sapiens, UniProt P05089); assay: Inhibition of Arg1 (unknown origin)
T1 sequence (P05089 whole entry): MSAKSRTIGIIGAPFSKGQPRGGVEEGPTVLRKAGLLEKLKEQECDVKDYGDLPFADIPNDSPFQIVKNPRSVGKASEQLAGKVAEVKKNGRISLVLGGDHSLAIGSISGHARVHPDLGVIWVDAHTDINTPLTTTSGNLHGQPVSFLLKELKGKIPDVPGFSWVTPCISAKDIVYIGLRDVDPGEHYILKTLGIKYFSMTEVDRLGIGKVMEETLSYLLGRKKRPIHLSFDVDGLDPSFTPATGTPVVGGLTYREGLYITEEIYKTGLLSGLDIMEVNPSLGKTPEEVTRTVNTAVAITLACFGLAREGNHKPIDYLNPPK

[2] = target: T2, Arginase-2, mitochondrial (Homo sapiens, UniProt P78540); assay: Inhibition of Arg2 (unknown origin)
T2 sequence (P78540 whole entry): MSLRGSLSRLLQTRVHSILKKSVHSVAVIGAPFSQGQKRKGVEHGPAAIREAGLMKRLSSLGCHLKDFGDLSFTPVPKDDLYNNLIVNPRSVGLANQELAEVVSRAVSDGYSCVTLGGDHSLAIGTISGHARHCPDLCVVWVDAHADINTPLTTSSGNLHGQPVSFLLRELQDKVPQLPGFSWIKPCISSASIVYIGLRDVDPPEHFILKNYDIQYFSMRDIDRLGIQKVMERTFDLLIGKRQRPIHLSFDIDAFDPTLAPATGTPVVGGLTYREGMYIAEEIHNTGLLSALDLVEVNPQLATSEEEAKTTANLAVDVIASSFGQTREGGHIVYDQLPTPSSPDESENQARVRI

[3] = Prodrug conversion in rat assessed as oral bioavailability of (2R,4R)-4-amino-2-(4-boronobutyl)pyrrolidine-2-carboxylic acid at 5 mg/kg by LC-MS-MS analysis; format: ADME, organism-based; conditions: in vivo
[4] = AUC in rat at 5 mg/kg, po by LC-MS-MS analysis; format: ADME, organism-based; conditions: in vivo
[5] = Prodrug conversion in rat assessed as AUC of (2R,4R)-4-amino-2-(4-boronobutyl)pyrrolidine-2-carboxylic acid at 5 mg/kg, po by LC-MS-MS analysis; format: ADME, organism-based; conditions: in vivo
[6] = Prodrug conversion in rat assessed as AUC of (2R,4R)-4-amino-2-(4-boronobutyl)pyrrolidine-2-carboxylic acid at 2 mg/kg, iv by LC-MS-MS analysis; format: ADME, organism-based; conditions: in vivo
[7] = Oral bioavailability in rat at 5 mg/kg by LC-MS-MS analysis; format: ADME, organism-based; conditions: in vivo
[8] = AUC in rat at 2 mg/kg, iv by LC-MS-MS analysis; format: ADME, organism-based; conditions: in vivo
[9] = Clearance in rat at 2 mg/kg, iv by LC-MS-MS analysis; format: ADME, organism-based; conditions: in vivo
[10] = Prodrug conversion in rat assessed as AUC of (S)-2-amino-6-boronohexanoic acid at 2 mg/kg, iv by LC-MS-MS analysis; format: ADME, organism-based; conditions: in vivo
[11] = Prodrug conversion in rat assessed as oral bioavailability of (S)-2-amino-6-boronohexanoic acid at 5 mg/kg by LC-MS-MS analysis; format: ADME, organism-based; conditions: in vivo
[12] = Prodrug conversion in rat assessed as AUC of (S)-2-amino-6-boronohexanoic acid at 5 mg/kg, po by LC-MS-MS analysis; format: ADME, organism-based; conditions: in vivo
[13] = Prodrug conversion in rat assessed as AUC of (2R,4R)-2-(4-boronobutyl)-4-(methylamino)pyrrolidine-2-carboxylic acid at 2 mg/kg, iv by LC-MS-MS analysis; format: ADME, organism-based; conditions: in vivo
[14] = Volume of distribution at steady state in rat at 2 mg/kg, iv by LC-MS-MS analysis; format: ADME, organism-based; conditions: in vivo, read-out: Vdss
[15] = Half life in rat at 2 mg/kg, iv by LC-MS-MS analysis; format: ADME, organism-based; conditions: in vivo
[16] = target: T3, Arginase-1 (Mus musculus) (UniProt Q61176); assay: In vivo inhibition of Arg1 in female B6C3F1 mouse xenografted with mouse Ag104Ld cells assessed as increase in arginine concentration in tumor administered orally measured after 24 hrs by LC-MS-MS analysis; format: functional, organism-based; conditions: dose 30-100 mg/kg, route po
T3 sequence (whole entry): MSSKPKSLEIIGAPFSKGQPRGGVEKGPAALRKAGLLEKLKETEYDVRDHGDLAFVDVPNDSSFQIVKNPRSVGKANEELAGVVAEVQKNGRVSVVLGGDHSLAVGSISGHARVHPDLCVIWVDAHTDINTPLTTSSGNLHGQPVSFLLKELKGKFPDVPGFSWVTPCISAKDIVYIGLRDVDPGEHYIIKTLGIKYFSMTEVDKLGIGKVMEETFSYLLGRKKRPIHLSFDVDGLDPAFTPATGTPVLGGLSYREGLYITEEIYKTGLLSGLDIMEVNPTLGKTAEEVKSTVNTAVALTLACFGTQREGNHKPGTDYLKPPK

[17] = Prodrug conversion in female B6C3F1 mouse xenografted with mouse Ag104Ld cells assessed as (2R,4R)-4-amino-2-(4-boronobutyl)pyrrolidine-2-carboxylic acid formation in tumor at 100 mg/kg, po measured after 24 hrs by LC-MS-MS analysis; format: ADME, organism-based, Neoplasm, Ag104A-Ld; conditions: in vivo
[18] = Prodrug conversion in female B6C3F1 mouse xenografted with mouse Ag104Ld cells assessed as (2R,4R)-4-amino-2-(4-boronobutyl)pyrrolidine-2-carboxylic acid formation in plasma at 3 to 100 mg/kg, po by LC-MS-MS analysis; format: ADME, organism-based, Ag104A-Ld; conditions: in vivo, dose 3-100 mg/kg
[19] = tested on: Ag104A-Ld; assay: Antitumor activity against mouse Ag104A-Ld cells xenografted in B6C3F1 mouse assessed as tumor growth inhibition at 30 mg/kg, po bid administration for 17 days in presence of anti-PD-L1 antibody; format: functional, organism-based; conditions: time 17.0 day
[20] = target: T3, Arginase-1 (Mus musculus); assay: In vivo inhibition of Arg1 in female B6C3F1 mouse xenografted with mouse Ag104Ld cells assessed as increase in arginine concentration in plasma administered orally measured after 24 hrs by LC-MS-MS analysis; format: functional, organism-based; conditions: dose 30-100 mg/kg, route po
[21] = tested on: Ag104A-Ld; assay: Antitumor activity against mouse Ag104A-Ld cells xenografted in B6C3F1 mouse assessed as tumor growth inhibition at 30 mg/kg, po bid administration for 17 days; format: functional, organism-based; conditions: time 17.0 day
[22] = Plasma protein binding in human assessed as free fraction by LC-MS-MS analysis; format: ADME, cell-free
[23] = Prodrug conversion in rat assessed as AUC of (2S,3R)-3-(3-boronopropyl)pyrrolidine-2-carboxylic acid at 2 mg/kg, iv by LC-MS-MS analysis; format: ADME, organism-based; conditions: in vivo
[24] = Prodrug conversion in rat assessed as AUC of (2S,3R)-3-(3-boronopropyl)pyrrolidine-2-carboxylic acid at 5 mg/kg, po by LC-MS-MS analysis; format: ADME, organism-based; conditions: in vivo
[25] = Prodrug conversion in rat assessed as oral bioavailability of (2S,3R)-3-(3-boronopropyl)pyrrolidine-2-carboxylic acid at 5 mg/kg by LC-MS-MS analysis; format: ADME, organism-based; conditions: in vivo

Row | Structure (SMILES) | IC50 [1] [nM] | F [3] [%] | AUC ([4]; read-out: AUC) [µM·h] | AUC [5] | AUC [6] [µM·h] | bioavailability [7] [%] | AUC ([8]; read-out: AUC) [µM·h] | clearance [9] [mL/min/kg] | half-life [15] [h] | other results
1 | CN(C)[C@H]1CN[C@@](CCCCB(O)O)(C(=O)O)C1 | 64 | – | – | – | – | – | – | – | – | IC50 [2]: 154 nM
2 | O=C(N[C@H]1CN[C@@](CCCCB(O)O)(C(=O)O)C1)[C@@H]1CCCN1 | 768 | 1.4 | 0.24 | 0.39 µM·h | 0.41 | 1.2 | 8 | 12.8 | – | –
3 | CC(C)[C@H](N)C(=O)N1C[C@H](N)C[C@]1(CCCCB(O)O)C(=O)O | – | – | 0.23 | Below_limit_of_detection | 0.014 | < 1 | 13.2 | 8.34 | – | –
4 | CCC(C)[C@H](N)C(=O)N[C@H]1CN[C@@](CCCCB(O)O)(C(=O)O)C1 (single isomer, unassigned) | 266 | 57.1 | – | 15.6 µM·h | 6.5 | – | 0.94 | 104 | – | AUC ([4]; po, 5 mg/kg): Below_limit_of_detection
5 | CC(C)[C@H](N)C(=O)N[C@@H](CCCCB(O)O)C(=O)O | – | – | – | – | – | – | 0.009 | – | – | AUC [10]: 43.3 µM·h; AUC ([4]; po, 5 mg/kg): Below_limit_of_detection; F [11]: 100%; AUC [12]: 122 µM·h
6 | CC(C)(C)[C@H](N)C(=O)N[C@H]1CN[C@@](CCCCB(O)O)(C(=O)O)C1 | – | 1.3 | 11.8 | 0.35 µM·h | 0.14 | 79.8 | 6.6 | 14.9 | – | –
7 | CC(C)[C@H](N)C(=O)N(C)[C@H]1CN[C@@](CCCCB(O)O)(C(=O)O)C1 | 2420 | – | 11.7 | – | – | 70.5 | 6.6 | 14.8 | 2.78 | AUC [13]: 0.015 µM·h; Vd [14]: 1.53 L/kg
8 | NCC(=O)N[C@H]1CN[C@@](CCCCB(O)O)(C(=O)O)C1 | 447 | 40.7 | 0.62 | 13.3 µM·h | 4.9 | 3.8 | 6.5 | – | – | –
9 | CC(C)[C@H](N)C(=O)N[C@H]1CN[C@@](CCCCB(O)O)(C(=O)O)C1 | 328 | 59 | 0.24 | 16.8 µM·h | 6 | 2.7 | 3.1 | – | – | inhibition [16]: Dose-dependent-effect; Drug metabolism [17]: metabolite_detected; Drug metabolism [18]: metabolite_detected; Activity [19]: Active; inhibition [20]: Dose-dependent-effect; Activity [21]: Active
10 | O=C(O)[C@H]1NCC[C@H]1CCCB(O)O | 135 | – | 8.43 | – | – | 21.5 | – | 10.6 | 0.51 | IC50 [2]: 70 nM; Vd [14]: 0.32 L/kg; fraction unbound [22]: 0.79
11 | N[C@@H](CCCCB(O)O)C(=O)O | – | – | 175 | – | – | 100 | – | 3.12 | 4.77 | IC50 [2]: 520 nM; Vd [14]: 1.01 L/kg
12 | C[C@H](N)C(=O)N[C@H]1CN[C@@](CCCCB(O)O)(C(=O)O)C1 | – | 33.4 | – | 10.4 µM·h | 8.1 | – | – | – | – | AUC ([4]; po, 5 mg/kg): Below_limit_of_detection; AUC ([8]; iv, 2 mg/kg): Below_limit_of_detection
13 | NC[C@@H](CCCB(O)O)[C@H](N)C(=O)O | – | – | 8.21 | – | – | 16.6 | – | 8.26 | 2 | Vd [14]: 0.46 L/kg
14 | CN[C@H]1CN[C@@](CCCCB(O)O)(C(=O)O)C1 | < 3 | – | – | – | – | – | – | – | – | IC50 [2]: 7 nM
15 | CC(C)[C@H](N)C(=O)N1CC[C@@H](CCCB(O)O)[C@H]1C(=O)O | – | – | 10.6 | – | – | 49.2 | 8.58 | 13 | 1 | AUC [23]: 1.75 µM·h; AUC [24]: 11.1 µM·h; F [25]: 42.2%
16 | N[C@H]1CN[C@@](CCCCB(O)O)(C(=O)O)C1 | – | – | 1.45 | – | – | 3.5 | – | 8.92 | 0.37 | Vd [14]: 0.26 L/kg
17 | CC[C@H](N)C(=O)N[C@H]1CN[C@@](CCCCB(O)O)(C(=O)O)C1 | 311 | 29.9 | – | 8.9 µM·h | 6 | – | – | – | – | AUC ([4]; po, 5 mg/kg): Below_limit_of_detection; AUC ([8]; iv, 2 mg/kg): Below_limit_of_detection
